Measured values as given in EP1270558B1, “"Compound for the treatment of atherosclerotic-thrombotic pathological conditions"” (Casagrande, Cesare, priority 2001, dated 2003).
Where two headings read alike, the source gives them in different places.

Assays:
[1] = tested on: platelet-rich plasma (PRP); experiment: Platelet aggregation in platelet-rich plasma (aggregometer, light transmittance); assay type: cell-based; conditions: for IC50: Homo sapiens, Platelet, 10 min, 10 min incubation
Method: Platelet aggregation experiments were performed on platelet-rich plasma (PRP) prepared from blood of healthy human subjects, who had not taken cyclooxygenase inhibitors (acetylsalicylic acid, non-steroidal antiinflammatory agents) for at least two weeks. Blood was collected in test tubes containing a 3.2 % sodium citrate solution (1/10 of blood volume) and immediately centrifuged at 150 x g for 15 minutes. Samples of PRP were further centrifuged at 12,000 x g in order to obtain platelet-poor plasma (PPP), used for calibration of light transmittance of the double-channel aggregometer, fixing the transmittance of PRP as 10 % and that of PPP as 90 %. Platelet aggregation in PRP of each subject was tested measuring the percent increase in transmittance under the addition of increasing amounts of sodium arachidonate, in concentrations in the range from 300 to 900 µM, or of collagen, in concentrations in the range from 0.5 to 2.5 µg/ml, or of U-46619, in concentrations in the range from 0.2 to 1.6 µM. […] In this way the threshold concentration, i.e., the concentration inducing a submaximal irreversible aggregation was assessed in each subject with the three agents.
PRP samples of subjects not responding to the maximal concentrations were discarded.

thromboxane synthesis = experiment: Thromboxane synthesis in clotting blood (serum TxB2 by radioimmunoassay); assay type: cell-based; conditions: human blood clotted 60 min at 37°C
Method: Test compounds were added in a series of concentrations ranging from 10^-7 M to 10^-3 M to samples of blood from healthy human subjects, who had not taken cyclooxygenase inhibitors (acetylsalicylic acid, non-steroidal antiinflammatory agents) for at least two weeks. The blood samples were allowed to clot for 60 min in a bath at 37°C, and then centrifuged at 2500 x g for 10 min. The serum was separated and kept frozen at -20°C for the determination of TxB2 by radioimmunoassay. TxB2 is the stable metabolite into which thromboxane A2 is rapidly converted.

[2] = tested on: transcellular synthesis of prostacyclin; experiment: Transcellular prostacyclin synthesis: PRP layered on acetylsalicylic acid-pretreated endothelial cells (6-keto-prostaglandin F1α by radioimmunoassay); assay type: cell-based, bovine
Method: The effects on the transcellular synthesis of prostacyclin from endoperoxides generated in platelets were assessed by layering platelet rich plasma (PRP), obtained from healthy human subjects as described above, on cultured bovine endothelial cells (5 x 10^5 cells/well). The endothelial cells were pretreated with acetylsalicylic acid (10^-4 M) in order to inhibit the direct synthesis of endoperoxides, and washed twice with Dulbecco's phosphate buffered saline. Then to individual samples of endothelial cells there were added at 37°C while shaking on an oscillating platform, 0.5 ml of PRP samples pretreated with the test compounds in various concentrations, ranging from 10^-7 M to 10 ^-3 M. Collagen (0.5 µg/ml) was then added to each sample. After 2 minutes of contact at 37°C, PRP was removed and centrifuged at 12,000 x g, and the supernatant was frozen and kept at -20°C for the determination of 6-keto-prostaglandin F1α by radioimmunoassay.
6-Keto-prostaglandin F1α is a stable metabolite into which prostacyclin is rapidly converted.

rabbit aortae = experiment: Vascular relaxation of precontracted aortic rings in vitro; assay type: cell-based; conditions: for EC50: Oryctolagus cuniculus, read-out: calculated EC50
Method: The ability to induce vascular relaxation by acting as a donor of nitric oxide was tested in vitro on rabbit aortae. Rings of aortae were suspended in a Krebs-Henseleit solution at 37°C, submitted to a 1 g tension and connected to a force transducer.

[3] = human PRP on acetylsalicylic acid-treated bovine endothelial cells, collagen 0.5 µg/ml
[4] = rabbit aortic rings contracted with norepinephrine (10^-6 M)

## COc1ccc(C(=O)N[C@H]2CC[C@H](O[N+](=O)[O-])CC2)cc1C(=O)NCc1cccnc1 [4-methoxy-N^1-(4-trans-nitrooxycyclohexyl)-N^3-(3-pyridinylmethyl)-1,3-benzenedicarboxamide]
[1]; aggregation induced by U-46619 (threshold concentration)
  IC50: 33 µM
[1]; aggregation induced by arachidonic acid (threshold concentration)
  IC50: 12 µM
[1]; aggregation induced by collagen (threshold concentration)
  IC50: 22 µM
Thromboxane synthesis; 1 h, read-out: IC50 (inhibit thromboxane synthesis)
  IC50: 18 µM
[2]; [3]
  concentration from which production of the prostacyclin metabolite was increased: 10^-6 M
  production of the prostacyclin metabolite (effect in words): markedly increased
[2]; human PRP on acetylsalicylic acid-treated bovine endothelial cells, collagen 0.5 µg/ml, up to
  production of the prostacyclin metabolite (6-keto-prostaglandin F1α), level reached: 800 to 1600 pg/mL
[2]; relative to basal production of untreated endothelial cells
  level times higher of the amount produced in basal conditions by endothelial cells not submitted to cyclooxygenase inhibition: 8-16 times
Rabbit aortae; norepinephrine-contracted rabbit aortic rings, methylene blue 10^-5 M in the bath
  EC50: 55 µM
Rabbit aortae; [4]
  EC50: 3.2 µM
  concentration inducing a complete relaxation of the aortic ring: 10^-4 M
Rabbit aortae; aortic rings contracted with 5-hydroxytryptamine
  relaxation in aortic rings: similarly able to produce relaxation
Rabbit aortae; aortic rings contracted with U-46619
  relaxation in aortic rings: similarly able to produce relaxation

## O=C(O)Cc1ccc(CCNS(=O)(=O)c2ccc(Cl)cc2)cc1 [daltroban, p-[2-(p-chlorobenzenesulfonamido)ethyl]phenylacetic, reference compound]
Thromboxane synthesis
  effect on thromboxane synthesis: did not show any effect
[2]; [3]
  production of the prostacyclin metabolite (effect in words): did not stimulate the synthesis of prostacyclin

## O=C(O)/C=C/c1ccc(Cn2ccnc2)cc1 [ozagrel, (E)-3-[4-(1H-imidazol-1-ylmethyl)-phenyl]-2-propenoic acid, reference compound]
[1]; human PRP, up to 10^-3 M concentrations
  inhibitory activity in the aggregation induced by collagen: did not show any significant inhibitory activity
